pIC50: −log10 of the molar value. Some results are limits rather than exact numbers.

For one test, the target named is T1, CDK2/cyclin A (Homo sapiens, UniProt P24941).
T1 construct: made in house; host or cells: insect cells infected with baculoviruses
Nature of the test: Inhibitory activity against CDK2/cyclin A enzyme (GST-RB phosphorylation, P32-γ-ATP, scintillation counting). The format is biochemical. The following applies: 100 μM ATP, GST-RB substrate, 30° C. 30 minutes. As to the method: (§1) Analysis of inhibitory activity against CDK2/cyclin A and CDK4/cyclin D1 enzyme.
(§2) The inhibitory activity against CDK2 is measured by referring to Kitagawa, M. et al., Oncogene 9:2549, 1994 and the inhibitory activity against CDK4 is measured by referring to Carlson, B. A. et al., Cancer Research 56:2473,1996.
(§3) As for CDK2, either the extract from the insect cell infected both with baculovirus which expresses CDK2 gene and baculovirus which expresses cyclin A gene or the active enzyme which had been purified therefrom was used. CDK4 enzyme was also obtained from the insect cell infected both with baculovirus expressing CDK4 gene and baculovirus expressing cyclin D1 gene. As the substrate for CDK2, either histon H1 or Rb protein was used. Rb protein was also used as the substrate for CDK4.
(§4) Specifically the activities of enzymes CDK2/cyclin A and CDK4/cyclin D1 were determined according to the following procedure.
(§5) 100 ng of enzyme was reacted in a total 1000 μl of 20 mM Tris (pH 8.0), 100 mM NaCl, 10 mM MgCl2 buffer solution containing 20 μg of GST-RB protein, 100 μM of ATP and 5 μCi of P32-γ-ATP at 30° C. for 30 minutes. Then, the enzyme reaction was stopped by adding EDTA to a concentration of 20 mM. Subsequently, 30 μl of 50% glutathione bead (purchased from Pharmacia) was added to attach GST-RB to the bead, which was washed three times with 20mM Tris (pH 8.0), 100 mM NaCl, 10 mM EDTA solution, and then scintillation counting was carried out. To analyze the inhibitory activity of the compound, the inhibitor having a proper concentration was added to the enzyme reaction solution, and then the enzyme activity was measured according to the above method.
(§6) The inhibitory activity of the compound of formula (1) according to the present invention against CDK2 and CDK4 is represented as IC50 value. The compounds which are not included in Examples(compound 63, 64, 65 and 66) were synthesized and purified according to the same procedure as examples, and then IC50 thereof was measured.

A further test deals with T2, CDK4/cyclin D1 (Homo sapiens, UniProt P11802).
T2 construct: made in house; host or cells: insect cells infected with baculoviruses
T2 sequence (P11802 whole entry, species assumed): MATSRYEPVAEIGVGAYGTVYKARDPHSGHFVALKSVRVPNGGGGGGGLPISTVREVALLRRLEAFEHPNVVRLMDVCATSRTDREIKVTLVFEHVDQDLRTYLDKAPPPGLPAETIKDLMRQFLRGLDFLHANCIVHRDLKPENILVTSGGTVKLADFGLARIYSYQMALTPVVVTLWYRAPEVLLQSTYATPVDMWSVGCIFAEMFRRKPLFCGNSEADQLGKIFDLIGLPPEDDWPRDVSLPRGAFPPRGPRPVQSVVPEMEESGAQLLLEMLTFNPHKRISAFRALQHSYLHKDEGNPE
T2 sequence (P24385 whole entry partner, species assumed): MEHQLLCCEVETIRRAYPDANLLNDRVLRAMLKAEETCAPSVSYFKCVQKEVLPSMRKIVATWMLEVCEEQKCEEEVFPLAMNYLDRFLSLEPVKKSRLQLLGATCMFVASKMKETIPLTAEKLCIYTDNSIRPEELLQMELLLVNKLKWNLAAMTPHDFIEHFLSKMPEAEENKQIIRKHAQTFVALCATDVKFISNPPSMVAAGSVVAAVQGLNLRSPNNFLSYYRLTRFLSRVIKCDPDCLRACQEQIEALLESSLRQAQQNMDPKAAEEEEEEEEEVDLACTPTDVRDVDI
Nature of the test: Inhibitory activity against CDK4/cyclin D1 enzyme (GST-RB phosphorylation, P32-γ-ATP, scintillation counting). It is filed as biochemical. To be noted: CDK4/cyclin D1, 100 μM ATP, GST-RB substrate, 30° C. 30 minutes. The protocol: as §1, §2, §3, §4, §5, §6

On to `O=c1c(O)c(-c2ccc(O)c(O)c2)oc2ccc(NS(=O)(=O)c3ccc(F)cc3F)cc12` [Compound 42, N-[2-(3,4-dihydroxyphenyl)-3-hydroxy-4-oxo-4H-chromen-6-yl]-2,4-difluorobenzenesulfonamide], for which the pIC50 was 4.34 on CDK2/cyclin A and 5.37 against CDK4/cyclin D1.

Regarding `COc1ccc2c(=O)cc(-c3ccccc3)oc2c1` [Compound 2, 7-methoxy-2-phenyl-chromen-4-one], the pIC50 against CDK2/cyclin A and against CDK4/cyclin D1 was less than 3.70 in each case.

As to `O=c1c(O)c(-c2ccc(O)c(O)c2)oc2ccc(NS(=O)(=O)NC3CCCCC3)cc12` [Compound 47, N-Cyclohexyl-N′-[2-(3,4-dihydroxyphenyl)-3-hydroxy-4-oxo-4H-chromen-6-yl]sulfamide], the pIC50 against CDK2/cyclin A was 4.19; at CDK4/cyclin D1 it was 5.70.

Turning to `Nc1ccc2oc(-c3ccc(O)c(O)c3)c(O)c(=O)c2c1` [Compound 15, 6-amino-2-(3,4-dihydroxyphenyl)-3-hydroxy-4H-chromen-4-one], the pIC50 against CDK2/cyclin A and on CDK4/cyclin D1 was more than 5.30 in each case. For the molecule `O=c1c(O)c(-c2ccc(O)c(O)c2)oc2ccc(NS(=O)(=O)c3ccc(Cl)c([N+](=O)[O-])c3)cc12` [Compound 40, 4-chloro-N-[2-(3,4-dihydroxyphenyl)-3-hydroxy-4-oxo-4H-chromen-6-yl]-3-nitrobenzenesulfonamide], the pIC50 against CDK2/cyclin A was 4.10; against CDK4/cyclin D1, 5.60. On the same counts, the results for `O=c1c(O)c(-c2ccc(O)c(O)c2)oc2cc(O)cc(O)c12` [Compound 65, 2-(3,4-dihydroxyphenyl)-3,5,7-trihydroxy-4H-chromen-4-one] are more than 4.30 and more than 4.30. Taken in the same sequence, the figures for `O=c1c(O)c(-c2ccc(O)c(O)c2)oc2ccc(NS(=O)(=O)c3cc(Br)c(Br)s3)cc12` [Compound 34, 4,5-Dibromo-N-[2-(3,4-dihydroxyphenyl)-3-hydroxy-4-oxo-4H-chromen-6-yl]-2-thiophenesulfonamide] were 5.52 and 6.00. On the same counts, the results for `O=c1cc(-c2ccccc2)oc2cc(O)ccc12` [Compound 3, 7-hydroxy-2-phenyl-chromen-4-one] are less than 3.70 and less than 3.70. Regarding `COc1ccc2c(=O)cc(-c3ccc(Cl)cc3)oc2c1` [Compound 1, 2-(4-chloro-phenyl)-7-methoxy-chromen-4-one], the pIC50 against CDK2/cyclin A and against CDK4/cyclin D1 was less than 3.70 in each case. Regarding `O=c1c(O)c(-c2ccc(O)c(O)c2)oc2ccc(NS(=O)(=O)CCc3cccc4ccccc34)cc12` [Compound 33, N-[2-(3,4-dihydroxyphenyl)-3-hydroxy-4-oxo-4H-chromen-6-yl]-2-(1-naphthyl)-1-ethanesulfonamide], the negative-log IC50 (pIC50) is 4.20 against CDK2/cyclin A and 5.30 at CDK4/cyclin D1. Consider `O=c1c(O)c(-c2ccc(O)c(O)c2)oc2ccc(NS(=O)(=O)c3ccc(N4CCOCC4)c([N+](=O)[O-])c3)cc12` [Compound 48, N-[2-(3,4-dihydroxyphenyl)-3-hydroxy-4-oxo-4H-chromen-6-yl]-4-(4-morpholinyl)-3-nitrobenzenesulfonamide], for which the pIC50 against CDK4/cyclin D1 is 6.03. For the molecule `O=C(NCc1ccccc1)Nc1ccc2oc(-c3ccc(O)c(O)c3)c(O)c(=O)c2c1` [Compound 54, N-benzyl-N′-[2-(3,4-dihydroxyphenyl)-3-hydroxy-4-oxo-4H-chromen-6-yl]urea], the pIC50 was 5.64 at CDK2/cyclin A and 5.55 against CDK4/cyclin D1. On to `Nc1ccc(NC(=O)Nc2ccc3oc(-c4ccc(O)c(O)c4)c(O)c(=O)c3c2)cc1` [Compound 62, N-(4-aminophenyl)-N′-[2-(3,4-dihydroxyphenyl)-3-hydroxy-4-oxo-4H-chromen-6-yl]urea], for which the negative logarithm of the IC50 (pIC50) against CDK2/cyclin A is 5.59; against CDK4/cyclin D1 it was 5.64. On the same counts, the results for `O=c1c(O)c(-c2ccc(O)c(O)c2)oc2ccc(NS(=O)(=O)c3ccc4c(c3)CNCC4)cc12` [Compound 46, N-[2-(3,4-dihydroxyphenyl)-3-hydroxy-4-oxo-4H-chromen-6-yl]-1,2,3,4-tetrahydro-7-isoquinolinesulfonamide] are 4.09 and 5.20. Turning to `O=c1c(O)c(-c2ccc(O)c(O)c2)oc2ccc(NS(=O)(=O)c3ccc(-c4ccccc4)cc3)cc12` [Compound 35, N-[2-(3,4-Dihydroxyphenyl)-3-hydroxy-4-oxo-4H-chromen-6-yl]-[1,1′-biphenyl]-4-sulfonamide], the pIC50 on CDK2/cyclin A was 5.40; against CDK4/cyclin D1, 5.70.

As for `O=c1c(O)c(-c2ccc(O)c(O)c2)oc2ccc(NS(=O)(=O)c3ccc4ccccc4c3)cc12` [Compound 31, N-[2-(3,4-dihydroxyphenyl)-3-hydroxy-4-oxo-4H-chromen-6-yl]-2-naphthalenesulfonamide], the pIC50 at CDK2/cyclin A was 4.45; against CDK4/cyclin D1, 5.38.

With `COc1ccc(-c2oc3c([N+](=O)[O-])cc(Cl)cc3c(=O)c2O)cc1` [Compound 9, 6-chloro-3-hydroxy-2-(4-methoxy-phenyl)-8-nitro-chromen-4-one], the pIC50 against CDK2/cyclin A and on CDK4/cyclin D1 was less than 4.00 throughout. `COc1ccc(-c2oc3c(Cl)cc(Cl)cc3c(=O)c2O)cc1` [Compound 10, 6,8-dichloro-3-hydroxy-2-(4-methoxy-phenyl)-chromen-4-one]: the pIC50 against CDK2/cyclin A and at CDK4/cyclin D1 was less than 4.00 in each case. In the case of `O=c1c(O)c(-c2ccc(O)c(O)c2)oc2ccc(NS(=O)(=O)c3ccc(F)c(F)c3)cc12` [Compound 38, N-[2-(3,4-dihydroxyphenyl)-3-hydroxy-4-oxo-4H-chromen-6-yl]-3,4-difluorobenzenesulfonamide], the figures for the pIC50 at CDK2/cyclin A and against CDK4/cyclin D1 were 4.72 and 5.59, respectively.

As for `N#Cc1cccc(NC(=O)Nc2ccc3oc(-c4ccc(O)c(O)c4)c(O)c(=O)c3c2)c1` [Compound 60, N-(3-cyanophenyl)-N′-[2-(3,4-dihydroxyphenyl)-3-hydroxy-4-oxo-4H-chromen-6-yl]urea], the negative logarithm of the IC50 (pIC50) was 5.33 against CDK2/cyclin A and 5.57 at CDK4/cyclin D1. Taken in the same sequence, the figures for `Cc1cc2oc(-c3ccc(O)c(O)c3)c(O)c(=O)c2cc1Cl` [Compound 22, 6-chloro-2-(3,4-dihydroxyphenyl)-3-hydroxy-7-methyl-4H-chromen4-one] were more than 5.00 and more than 5.00. On the same counts, the results for `O=c1c(O)c(-c2ccc(O)c(O)c2)oc2c(O)cccc12` [Compound 25, 2-(3,4-dihydroxyphenyl)-3,8-dihydroxy-4H-chromen-4-one] are more than 5.00 and more than 5.00. On the same counts, the results for `O=C(Nc1ccc2oc(-c3ccc(O)c(O)c3)c(O)c(=O)c2c1)c1ccccc1` [Compound 52, N-[2-(3,4-dihydroxyphenyl)-3-hydroxy-4-oxo-4H-chromen-6-yl]benzamide] are 4.64 and 5.22. As to `CN1CCN(c2ccc(S(=O)(=O)Nc3ccc4oc(-c5ccc(O)c(O)c5)c(O)c(=O)c4c3)cc2[N+](=O)[O-])CC1` [Compound 49, N-[2-(3,4-dihydroxyphenyl)-3-hydroxy-4-oxo-4H-chromen-6-yl]-4-(4-methyl-1-piperazinyl)-3-nitrobenzenesulfonamide], the figures for the pIC50 against CDK2/cyclin A and against CDK4/cyclin D1 were 4.51 and 5.80, respectively. As for `COc1ccc2c(=O)c(O)c(-c3ccc(O)c(O)c3)oc2c1` [Compound 23, 2-(3,4-Dihydroxyphenyl)-3-hydroxy-7-methoxy-4H-chromen-4-one], the pIC50 at CDK2/cyclin A and against CDK4/cyclin D1 was more than 4.52 each time. With `O=c1c(O)c(-c2ccc(O)c(O)c2)oc2ccc(Cl)cc12` [Compound 12, 6-chloro-2-(3,4-dihydroxyphenyl)-3-hydroxy-4H-chromen-4-one], the pIC50 at CDK2/cyclin A is more than 5.30; against CDK4/cyclin D1 it was more than 5.00. Regarding `Cc1ccc2oc(-c3ccc(O)c(O)c3)c(O)c(=O)c2c1` [Compound 18, 6-methyl-2-(3,4-dihydroxyphenyl)-3-hydroxy-4H-chromen-4-one], the pIC50 on CDK2/cyclin A and against CDK4/cyclin D1 was more than 5.00 throughout. As for `COc1ccc2c(=O)c(O)c(-c3ccc(Cl)cc3)oc2c1` [Compound 8, 2-(4-chloro-phenyl)-3-hydroxy-7-methoxy-chromen-4-one], the pIC50 against CDK2/cyclin A and at CDK4/cyclin D1 was less than 4.00 throughout. On to `O=c1c(O)c(-c2ccc(O)c(O)c2)oc2ccccc12` [Compound 63, 2-(3,4-dihydroxyphenyl)-3-hydoxy-4H-chromen-4-one], for which the pIC50 against CDK2/cyclin A and against CDK4/cyclin D1 was more than 5.00 each time. In the case of `COc1ccc2c(=O)c(O)c(-c3ccc4c(c3)OCO4)oc2c1` [Compound 6, 2-(benzo[1,3]dioxol-5-yl)-3-hydroxy-7-methoxy-chromen-4-one], the pIC50 on CDK2/cyclin A and against CDK4/cyclin D1 was less than 4.00 throughout.

Consider `COc1ccc2oc(-c3ccc(O)c(O)c3)c(O)c(=O)c2c1` [Compound 16, 2-(3,4-dihydroxyphenyl)-3-hydroxy-6-methoxy-4H-chromen-4-one], for which the pIC50 at CDK2/cyclin A and against CDK4/cyclin D1 was more than 5.00 in each case.

The term pIC50 denotes −log10 of the IC50, conventionally taken in molar units. A lower pIC50 goes with a large IC50.

Source of the values: US6500846B1, “CDK inhibitors having flavone structure” (LG Chemical, Ltd., priority 1998, dated 2002).
